According to PubChem BioAssay (NCI):
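The compound was tested at five concentrations on cells cultured in 96-well plates, with a 48-hour exposure period. The concentration for 50% growth inhibition is given as GI50. TGI: concentration producing complete growth inhibition.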

Experiments:
Assay in all cases: growth of human tumour cells (NCI), 48 h
[1] = tested on: SNB-19 CNS
[2] = tested on: HCT-116 colon
[3] = tested on: NCI-H522 lung
[4] = tested on: NCI-H23 lung
[5] = tested on: NCI-H226 lung
[6] = tested on: OVCAR-5 ovarian
[7] = tested on: SK-MEL-5 melanoma
[8] = tested on: HOP-92 NSCLC
[9] = tested on: U251 CNS
[10] = tested on: SR leukemia

SMILES	GI50 [1]	TGI [1]	GI50 [2]	TGI [2]	GI50 [3]	TGI [3]	GI50 [4]	TGI [4]	GI50 [5]	TGI [5]	GI50 [6]	TGI [6]	GI50 [7]	TGI [7]	GI50 [8]	TGI [8]	GI50 [9]	TGI [9]	TGI [10]	GI50 [10]
Fc1c[c-]c(-c2ccccn2)c(F)c1.[CH3-].[Pt+2].c1ccc(P(C[PH+](c2ccccc2)c2ccccc2)c2ccccc2)cc1	403 nM	1320 nM	494 nM	1290 nM	960 nM	3160 nM	563 nM	1990 nM	559 nM	2090 nM	980 nM	2540 nM	714 nM	1370 nM	512 nM	1340 nM	347 nM	1060 nM	–	–
CC(=O)[CH-]C(=O)c1ccccc1.CC(=O)[CH-]C(=O)c1ccccc1.[CH2-]CCC.[CH2-]CCC.[Sn+4]	1300 nM	2730 nM	1380 nM	2780 nM	157 nM	327 nM	476 nM	1770 nM	526 nM	2280 nM	2070 nM	3590 nM	625 nM	1970 nM	–	–	1320 nM	2650 nM	–	–
CC1(C)CC(=O)c2c(oc3cc(O)c(O)cc23)C1	–	> 100000 nM	–	–	–	24300 nM	–	–	–	–	–	56900 nM	–	32500 nM	–	95200 nM	–	> 100000 nM	> 100000 nM	–
CC1=C(C(=O)CC(=O)C(=O)NC2C3CC4CC(C3)CC2C4)Sc2ccccc2N1 (stereo not drawn)	–	> 100000 nM	–	> 100000 nM	–	> 100000 nM	–	> 100000 nM	–	–	–	> 100000 nM	–	> 100000 nM	–	> 100000 nM	–	> 100000 nM	–	–
COc1cc([C@H]2c3[nH]c4ccccc4c3C[C@H]3COC(=O)N32)cc(OC)c1O	–	> 100000 nM	–	51200 nM	–	–	–	17100 nM	–	28500 nM	–	> 100000 nM	–	17400 nM	–	> 88000 nM	–	19000 nM	285 nM	–
CC1(C)C2CCC13C(=O)C1OC3(C2)C2C(=O)c3c(O)cccc3C(=O)C12 (stereo not drawn)	10600 nM	23900 nM	1090 nM	2300 nM	3200 nM	10100 nM	2240 nM	6550 nM	7680 nM	23800 nM	4250 nM	13700 nM	460 nM	1640 nM	566 nM	1890 nM	640 nM	1810 nM	–	–
CCCCCCCCCCCCCCCCS(=O)(=O)c1ccc(NN)cc1	–	> 10000 nM	–	> 10000 nM	–	> 10000 nM	–	> 10000 nM	–	–	–	> 10000 nM	–	> 10000 nM	–	> 10000 nM	–	> 10000 nM	> 10000 nM	–
O=C(Nc1ccccc1O)c1ccc(CNC(=O)c2ccsc2Nc2ccnc(C(F)(F)F)c2)cc1	2970 nM	13200 nM	1340 nM	3360 nM	1770 nM	6860 nM	1720 nM	4880 nM	2480 nM	30900 nM	2050 nM	14700 nM	1690 nM	4070 nM	–	–	1650 nM	5070 nM	29100 nM	2810 nM
